Calls of active or inactive are those of the source. The rule behind the calls is not given here.
Legend:
[1] = biological target: Trypanothione reductase (Trypanosoma cruzi, UniProt P28593); experiment: Compound was evaluated for the competitive inhibition of trypanothione reduction by recombinant Trypanothione reductase from Trypanosoma cruzi
[2] = biological target: Glutathione reductase (Saccharomyces cerevisiae) (UniProt P41921); experiment: Compound was evaluated for the competitive inhibition of glutathione reductase from yeast; No inhibition
Glutathione reductase (Saccharomyces cerevisiae), sequence (P41921 whole entry, looked up): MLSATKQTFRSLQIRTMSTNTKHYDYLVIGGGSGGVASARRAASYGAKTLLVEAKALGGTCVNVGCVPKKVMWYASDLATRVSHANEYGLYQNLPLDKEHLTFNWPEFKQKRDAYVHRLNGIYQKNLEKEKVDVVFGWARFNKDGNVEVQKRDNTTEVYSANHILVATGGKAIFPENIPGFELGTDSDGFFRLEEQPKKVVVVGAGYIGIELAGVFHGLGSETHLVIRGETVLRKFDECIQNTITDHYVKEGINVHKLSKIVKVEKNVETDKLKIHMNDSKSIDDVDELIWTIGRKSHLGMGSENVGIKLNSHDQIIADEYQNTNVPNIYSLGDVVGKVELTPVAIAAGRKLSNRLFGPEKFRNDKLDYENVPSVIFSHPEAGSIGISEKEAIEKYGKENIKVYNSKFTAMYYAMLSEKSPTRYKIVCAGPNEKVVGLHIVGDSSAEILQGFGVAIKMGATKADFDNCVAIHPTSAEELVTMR

Trypanothione reductase, sequence (P28593 whole entry): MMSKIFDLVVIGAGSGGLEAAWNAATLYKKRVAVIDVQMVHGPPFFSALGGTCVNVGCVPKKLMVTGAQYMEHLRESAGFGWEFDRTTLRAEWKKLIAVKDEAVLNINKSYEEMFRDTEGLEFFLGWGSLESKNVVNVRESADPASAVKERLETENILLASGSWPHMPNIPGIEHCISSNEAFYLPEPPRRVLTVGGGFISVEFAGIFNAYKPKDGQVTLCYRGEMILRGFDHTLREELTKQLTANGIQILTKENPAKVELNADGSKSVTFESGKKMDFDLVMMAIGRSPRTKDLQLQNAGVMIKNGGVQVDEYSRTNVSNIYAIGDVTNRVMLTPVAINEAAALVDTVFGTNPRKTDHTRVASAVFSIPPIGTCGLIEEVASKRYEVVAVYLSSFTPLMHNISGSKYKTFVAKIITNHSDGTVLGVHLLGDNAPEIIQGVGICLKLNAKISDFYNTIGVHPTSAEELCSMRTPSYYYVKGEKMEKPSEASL

Structure (SMILES) | Ki [1] | Activity [2]
O=C(NCCCCNCCCNC(=O)c1ccccc1)c1ccccc1 | > 2000 µM | –
NCCCN(CCCCN(CCCN)Cc1ccccc1)Cc1ccccc1 | 19 µM | –
c1ccc2cc(CNCCCCNCCCNCc3ccc4ccccc4c3)ccc2c1 | 9.5 µM | inactive

Continued, values first:

Ki [1] | Activity [2] | Structure (SMILES)
280 µM | – | NCCCCN(CCCN)C(=O)OCc1ccccc1
108 µM | – | NCCCCN(CCCN)Cc1ccc2ccccc2c1
3.5 µM | inactive | NCCCN(CCCCN(CCCN)CCCc1ccccc1)CCCc1ccccc1
5.5 µM | inactive | NCCCN(CCCCN(CCCN)Cc1ccc2ccccc2c1)Cc1ccc2ccccc2c1

From ChEMBL document CHEMBL1159187, “Novel polyamine derivatives as potent competitive inhibitors of Trypanosoma cruzi trypanothione reductase” (Bioorg Med Chem Lett, 1995)
